# Reference: patent US9844542B2, “Substituted imidazopyridine and triazolopyridine compounds as negative allosteric modulators of mGluR5” (Vanderbilt University, priority 2013, dated 2017)
# Where “and” joins values, the source holds several entries; their conditions need not be identical. Identical values can stand only once.
# Biological target: T1, rat mGluR5 (Rattus norvegicus, UniProt P31424)
# T1 construct: expressed in transfected cells
# Assay: mGluR5 calcium mobilization assay (FDSS, Fluo-4) in HEK 293A cells stably expressing rat mGluR5
# Type: cell-based
# Settings: HEK cells transfected with rat mGluR5; antagonism of glutamate EC80 response; ± = standard error of at least three experiments
# Experimental: Human embryonic kidney (HEK) cells transfected with rat or human mGluR5 were plated in clear bottom assay plates for assay in a Functional Drug Screening System (FDSS). The cells were loaded with a Ca^2+-sensitive fluorescent dye (e.g., Fluo-4), and the plates were washed and placed in the FDSS instrument. Test compound was applied to cells 3 seconds after baseline readings were taken. Cells were incubated with the test compounds for 140 seconds and then stimulated with an EC20 concentration of an mGluR5 agonist (e.g., glutamate, 3,5-dihydroxyphenylglycine, or quisqualate); 60-80 seconds later an EC80 concentration of agonist was added and readings taken for an additional 40 seconds. Data were collected at 1 Hz. […] Concentration response curves were generated using a four parameter logistical equation.
# The above described assay was operated in two modes. In the first mode (utilizing a triple add protocol), a range of concentrations of the present compounds were added to cells, followed by two single fixed concentrations of agonist (EC20 followed by EC80). If a compound acted as a potentiator, an EC50 value for potentiation of the EC20 response and a maximum extent of potentiation by the compound at this concentration of agonist was determined by non-linear curve fitting. If a compound acted as an antagonist, an IC50 value for antagonism of the EC80 response and a maximum extent of antagonism by the compound at this concentration of agonist was determined by non-linear curve fitting. In the second mode (utilizing a double add protocol), several fixed concentrations of the present compounds were added to various wells on a plate, followed by a range of concentrations of agonist for each concentration of present compound; the EC50 values for the agonist at each concentration of compound were determined by nonlinear curve fitting. A decrease in the EC50 value of the agonist with increasing concentrations of the present compounds (a leftward shift of the agonist concentration-response curve) is an indication of the degree of mGluR5 positive allosteric modulation at a given concentration of the present compound. An increase in the EC50 value of the agonist with increasing concentrations of the present compounds (a rightward shift of the agonist concentration response curve) is an indication of the degree of mGluR5 antagonism at a given concentration of the present compound. The second mode also indicates whether the present compounds also affect the maximum response to mGluR5 to agonists.
# The mGluR5 activity was determined using the calcium mobilization assays in human embryonic kidney cells as described herein below, wherein the human embryonic kidney cells were transfected with rat mGluR5. The mGluR5 activity data for some compounds are shown as the average of at least three experiments with the standard error in these cases. If no error is indicated for the mGluR5 activity, the values given represent the results from a single experiment or the average of two experiments. The compounds in Table 1 were synthesized with methods identical or analogous to those shown herein. The requisite starting materials were commercially available, described in the literature, or readily synthesized by one skilled in the art of organic synthesis.
# GluMax is the amplitude of response in the presence of 30 μM test compound as a percentage of maximal response (100 μM glutamate). Partial antagonists display concentration-response curves (CRCs) that plateau above 10%.
# The preparation of rat mGluR5 stable cell-lines is as previously described (e.g. see Romano et al. J Biol. Chem. 1996 Nov. 8; 271(45):28612-6).
# T1 sequence (P31424 21-1171 isoform P31424-2 limits assumed): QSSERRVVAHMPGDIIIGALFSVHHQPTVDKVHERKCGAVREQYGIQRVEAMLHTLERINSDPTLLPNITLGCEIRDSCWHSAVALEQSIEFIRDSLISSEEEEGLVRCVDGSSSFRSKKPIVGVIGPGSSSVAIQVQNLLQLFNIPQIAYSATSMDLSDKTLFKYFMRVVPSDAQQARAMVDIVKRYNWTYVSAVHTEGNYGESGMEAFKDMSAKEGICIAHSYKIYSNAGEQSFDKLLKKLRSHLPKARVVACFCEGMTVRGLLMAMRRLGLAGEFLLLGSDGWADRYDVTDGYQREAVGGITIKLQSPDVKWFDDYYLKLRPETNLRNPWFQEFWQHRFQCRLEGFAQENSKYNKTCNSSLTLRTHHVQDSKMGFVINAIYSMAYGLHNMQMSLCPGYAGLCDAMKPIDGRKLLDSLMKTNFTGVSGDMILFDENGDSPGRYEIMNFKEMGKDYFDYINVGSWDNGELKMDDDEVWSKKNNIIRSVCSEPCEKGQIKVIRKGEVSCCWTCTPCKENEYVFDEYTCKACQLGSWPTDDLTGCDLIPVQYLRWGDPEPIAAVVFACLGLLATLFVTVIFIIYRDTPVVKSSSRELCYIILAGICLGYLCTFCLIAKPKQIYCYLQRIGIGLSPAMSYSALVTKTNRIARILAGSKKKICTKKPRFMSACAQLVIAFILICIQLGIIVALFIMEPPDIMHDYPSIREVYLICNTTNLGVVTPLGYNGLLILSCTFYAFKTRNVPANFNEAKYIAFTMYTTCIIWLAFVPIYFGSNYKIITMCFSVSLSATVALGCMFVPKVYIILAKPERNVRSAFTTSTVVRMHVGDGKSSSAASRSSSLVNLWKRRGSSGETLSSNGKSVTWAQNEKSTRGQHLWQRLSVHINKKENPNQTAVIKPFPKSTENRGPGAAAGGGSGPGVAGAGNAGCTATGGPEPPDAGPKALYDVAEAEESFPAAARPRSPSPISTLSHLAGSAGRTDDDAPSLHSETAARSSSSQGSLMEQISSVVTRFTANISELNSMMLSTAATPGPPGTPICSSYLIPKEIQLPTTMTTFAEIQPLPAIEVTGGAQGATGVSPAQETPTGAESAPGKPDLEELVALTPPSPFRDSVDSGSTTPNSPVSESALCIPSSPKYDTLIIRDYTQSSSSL
row,IC50,Compound
1,42 nM,O=C(Nc1cccc(F)n1)c1cc(Oc2cncc(F)c2)cn2ccnc12
2,162 nM,COc1cccc(NC(=O)c2cc(Oc3cncnc3)cn3cnnc23)n1
3,28 nM,O=C(Nc1ccccn1)c1cc(Oc2cccnc2)cn2ncnc12
4,236 nM,COc1cccc(NC(=O)c2cc(Oc3cncc(Cl)c3)cn3ncnc23)n1
5,312 nM,Cc1cccc(NC(=O)c2cc(Oc3cncnc3)cn3ncnc23)n1
6,4130 nM,COc1cncc(Oc2cc(C(=O)Nc3cccc(F)n3)c3nncn3c2)c1
7,142 nM,COc1ccc(NC(=O)c2cc(Oc3cccnc3)cn3ncnc23)nc1
8,168 nM,CCc1cccc(NC(=O)c2cc(Oc3cncc(F)c3)cn3cnnc23)n1
9,146 nM,COc1cccc(NC(=O)c2cc(Oc3cncc(F)c3)cn3cnnc23)n1
10,85 nM,COc1ccc(NC(=O)c2cc(Oc3cncc(OC)c3)cn3ccnc23)nc1
11,> 10000 nM,CCc1cccc(NC(=O)c2cc(Oc3cnc(C)nc3)cn3cnnc23)n1
12,160 nM,Cc1cncc(Oc2cc(C(=O)Nc3cccc(C)n3)c3ncnn3c2)c1
13,41 ± 2 nM,O=C(Nc1ccc(F)cn1)c1cc(Oc2cncc(F)c2F)cn2ncnc12
14,82 nM,COc1ccc(NC(=O)c2cc(Oc3cncc(F)c3)cn3cnnc23)nc1
15,94 nM,Cc1cncc(Oc2cc(C(=O)Nc3ccc(F)cn3)c3ncnn3c2)c1
16,119 nM,Cc1nc(NC(=O)c2cc(Oc3cccnc3)cn3ncnc23)ccc1F
17,77 nM,Cc1ccc(NC(=O)c2cc(Oc3cncc(F)c3)cn3cnnc23)nc1
18,89 nM,Cc1cncc(Oc2cc(C(=O)Nc3cccc(F)n3)c3ncnn3c2)c1
19,414 nM,O=C(Nc1cccc(F)n1)c1cc(Oc2cncc(Cl)c2)cn2cnnc12
20,1340 nM,CCc1cccc(NC(=O)c2cc(Oc3cncc(Cl)c3)cn3cnnc23)n1
21,2840 nM,COc1cccc(NC(=O)c2cc(Oc3cnc(C)nc3)cn3ccnc23)n1
22,1070 nM,COc1cncc(Oc2cc(C(=O)Nc3ccc(F)c(C)n3)c3ncnn3c2)c1

row,IC50,Compound
1,217 nM,[2H]c1nc(NC(=O)c2cc(Oc3cncc(Cl)c3)cn3cnnc23)c([2H])c([2H])c1[2H]
2,68 nM,COc1ccc(NC(=O)c2cc(Oc3cncc(F)c3)cn3ncnc23)nc1
3,426 nM,Cc1csc(NC(=O)c2cc(Oc3cncc(F)c3)cn3c(C)nnc23)n1
4,469 nM,[2H]c1nc(NC(=O)c2cc(Oc3cncnc3)cn3cnnc23)c([2H])c([2H])c1[2H]
5,1090 nM,Cc1csc(NC(=O)c2cc(Oc3cnc(C)nc3)cn3ccnc23)n1
6,695 nM,Cc1cccc(NC(=O)c2cc(Oc3cncc(Cl)c3)cn3cnnc23)n1
7,40 nM,O=C(Nc1ccc(F)cn1)c1cc(Oc2cncc(O)c2)cn2ncnc12
8,161 nM,O=C(Nc1nc(C2CC2)cs1)c1cc(Oc2cncnc2)cn2ncnc12
9,92 nM,COc1ccc(NC(=O)c2cc(Oc3cncc(Cl)c3)cn3ncnc23)nc1
10,1430 nM,N#Cc1cncc(Oc2cc(C(=O)Nc3ccc(F)cn3)c3nncn3c2)c1
11,268 nM,COc1cncc(Oc2cc(C(=O)Nc3cccc(OC)n3)c3nccn3c2)c1
12,360 nM,Cc1nnc2c(C(=O)Nc3ccc(F)cn3)cc(Oc3cncc(F)c3)cn12
13,172 nM,Cc1nnc2c(C(=O)Nc3ccccn3)cc(Oc3cncc(F)c3)cn12
14,110 nM,Cc1csc(NC(=O)c2cc(Oc3cc(F)cnc3F)cn3ncnc23)n1
15,36 nM,O=C(Nc1ccccn1)c1cc(Oc2cncc(F)c2F)cn2ncnc12
16,150 nM,Cc1nc(NC(=O)c2cc(Oc3cncnc3)cn3ncnc23)sc1F
17,25 nM,O=C(Nc1ccc(F)cn1)c1cc(Oc2cccnc2)cn2ncnc12
18,66 nM,COc1cncc(Oc2cc(C(=O)Nc3nc(C)cs3)c3nccn3c2)c1
19,94 nM,COc1cccc(NC(=O)c2cc(Oc3cncc(F)c3)cn3ccnc23)n1
20,3600 nM,COc1cncc(Oc2cc(C(=O)Nc3ccc(C)cn3)c3nncn3c2)c1
21,40 nM,COc1cncc(Oc2cc(C(=O)Nc3ccccn3)c3nccn3c2)c1
22,> 10000 nM,COc1ccc(NC(=O)c2cc(Oc3cnc(C)nc3)cn3cnnc23)nc1

row,IC50,Compound
1,41 nM,Cc1cccc(NC(=O)c2cc(Oc3cccnc3)cn3ncnc23)n1
2,50 nM,O=C(Nc1cccc(F)n1)c1cc(Oc2cncc(F)c2)cn2cnnc12
3,39 nM,O=C(Nc1ccc(F)cn1)c1cc(Oc2cncc(Cl)c2)cn2ncnc12
4,130 nM,Cc1cccc(NC(=O)c2cc(Oc3cncc(Cl)c3)cn3ncnc23)n1
5,2150 nM,COc1cncc(Oc2cc(C(=O)Nc3cccc(C)n3)c3nncn3c2)c1
6,175 nM,COc1cncc(Oc2cc(C(=O)Nc3cccc(C)n3)c3ncnn3c2)c1
7,218 nM,COc1cncc(Oc2cc(C(=O)Nc3ccc(C)cn3)c3ncnn3c2)c1
8,674 nM,N#Cc1cncc(Oc2cc(C(=O)Nc3ccccn3)c3nncn3c2)c1
9,> 10000 nM,COc1cccc(NC(=O)c2cc(Oc3cnc(C)nc3)cn3cnnc23)n1
10,260 nM,COc1cccc(NC(=O)c2cc(Oc3cncc(C)c3)cn3ncnc23)n1
11,139 nM,COc1cncc(Oc2cc(C(=O)Nc3nc(C)cs3)c3ncnn3c2)c1
12,28 ± 7 nM,O=C(Nc1ccc(F)cn1)c1cc(Oc2cncc(F)c2)cn2cnnc12 [drawing 160]
13,483 nM,CCc1cccc(NC(=O)c2cc(Oc3cncc(C)c3)cn3ncnc23)n1
14,43 nM,[2H]c1nc(NC(=O)c2cc(Oc3cncc(F)c3)cn3ncnc23)c([2H])c([2H])c1[2H]
15,331 nM,COc1ccc(NC(=O)c2cc(Oc3cncc(OC)c3)cn3ncnc23)nc1
16,105 nM,N#Cc1cncc(Oc2cc(C(=O)Nc3ccccn3)c3ncnn3c2)c1
17,1420 nM,CCc1cccc(NC(=O)c2cc(Oc3cncc(OC)c3)cn3cnnc23)n1 [drawing 282]
18,26 nM,[2H]c1nc(NC(=O)c2cc(Oc3cccnc3)cn3ncnc23)c([2H])c([2H])c1[2H]
19,43 nM,Cc1csc(NC(=O)c2cc(Oc3cccnc3)cn3ncnc23)n1
20,23 nM and 25 nM,O=C(Nc1ccc(F)cn1)c1cc(Oc2cncc(F)c2)cn2ncnc12 [drawing 179]
21,1210 nM,Cc1csc(NC(=O)c2cc(Oc3cncc(C#N)c3)cn3cnnc23)n1
22,119 nM,Cc1csc(NC(=O)c2cc(Oc3cnc(F)c(F)c3)cn3ncnc23)n1

row,IC50,Compound
1,128 nM,Cc1cccc(NC(=O)c2cc(Oc3cnc(F)c(F)c3)cn3ncnc23)n1
2,535 nM,O=C(Nc1nc(C(F)(F)F)cs1)c1cc(Oc2cncnc2)cn2ncnc12
3,416 nM,COc1cncc(Oc2cc(C(=O)Nc3cccc(OC)n3)c3ncnn3c2)c1 [drawing 289]
4,9410 nM,Cc1ncc(Oc2cc(C(=O)Nc3ccccn3)c3nncn3c2)cn1
5,1050 nM,Cc1ccc(NC(=O)c2cc(Oc3cncc(Cl)c3)cn3cnnc23)nc1
6,57 nM,Cc1cncc(Oc2cc(C(=O)Nc3ccccn3)c3ncnn3c2)c1
7,135 nM,Cc1csc(NC(=O)c2cc(Oc3cncc(F)c3)cn3nc(C)nc23)n1
8,> 10000 nM,Cc1ncc(Oc2cc(C(=O)Nc3ccc(F)c(C)n3)c3nncn3c2)cn1
9,7970 nM,[2H]c1nc(NC(=O)c2cc(Oc3cnc(C)nc3)cn3cnnc23)c([2H])c([2H])c1[2H]
10,73 nM,Cc1cccc(NC(=O)c2cc(Oc3cncc(F)c3)cn3cnnc23)n1
11,897 nM,COc1cncc(Oc2cc(C(=O)Nc3ccccn3)c3nncn3c2)c1
12,> 10000 nM,CCc1cccc(NC(=O)c2cc(Oc3cncc(OC)c3)cn3cnnc23)n1 [drawing 287]
13,214 nM,O=C(Nc1nc(C(F)F)cs1)c1cc(Oc2cncnc2)cn2ncnc12
14,248 nM,CCc1cccc(NC(=O)c2cc(Oc3cncc(F)c3)cn3ccnc23)n1
15,70 nM,COc1cccc(NC(=O)c2cc(Oc3cncc(F)c3)cn3ncnc23)n1
16,1170 nM,O=C(Nc1cc(F)ccn1)c1cc(Oc2cncc(F)c2)cn2cnnc12
17,306 nM,CCc1cccc(NC(=O)c2cc(Oc3cncnc3)cn3ncnc23)n1
18,182 nM,Cc1csc(NC(=O)c2cc(Oc3cncc(Cl)c3)cn3ccnc23)n1
19,31 nM,O=C(Nc1cccc(F)n1)c1cc(Oc2cncc(F)c2)cn2ncnc12
